These results are taken from patent US4191808A, “Method of measuring dipeptidyl-amino-peptidase activity” (Ajinomoto Co., Inc., priority 1975, dated 1980).

Peptide text beside a SMILES is read from it. * marks the point of attachment. pNA = O=[N+]([O-])c1ccc(N*)cc1

For orientation: Km means the concentration of substrate that gives half-maximal velocity.

Series [1] concerns the target T1, X-prolyl dipeptidyl-aminopeptidase in human serum (Homo sapiens, UniProt P27487).
T1 construct: Even if crude enzyme such as human serum is used as enzyme source, the activity is accurately measured; from tissue; host or cells: human serum (normal subjects and patients)
The series can be described thus: Hydrolysis of phenylazo substrates by human serum, photometry at 493 nm / 532 nm. It is filed as biochemical. The procedure: 3 mM of substrate solutions were prepared as in Example 22, glycyl-L-proline p-phenylazoanilide tosylate and glycyl-L-proline 4-phenylazo-1-naphthylamide being used as substrates.
The assay of enzyme activity was carried out by adding 0.05 ml of human serum to a mixture of 0.5 ml […] glycine-NaOH buffer (pH 8.7) and 0.5 ml substrate solution in the experimental tube, incubating the resulting solution at 37° C. for 30 minutes, and then stopping the reaction with 3.0 ml 1N-hydrochloric acid. The absorbances were A 493 nm=0.18 for glycyl-L-proline p-phenylazoanilide and A 532 nm=0.80 for glycyl-L-proline 4-phenylazo-1-naphthylamide.
The rate of hydrolysis of glycyl-L-proline p-phenylazoanilide was measured as in Example 26, human serum being used as enzyme. However, the blank tube contained water instead of the enzyme solution in the experimental tube, and the standard tube contained 3 mM p-phenylazo-aniline solution instead of the enzyme solution in the experimental tube.

In another series the test system is human serum. Kind of series: Paper chromatography of products after incubation with human serum. It is filed as biochemical. Conditions: incubation 30 minutes. The protocol: The products obtained after incubating various X-L-proline p-nitroanilides with purified human submaxillary enzyme or human serum for 30 minutes as in Example 22 were examined by paper chromatography, the residues of glycine, L-alanine, L-glutamic acid, L-aspartic acid, L-lysine and L-argine being used as the N-terminal amino acids (X).
When the rate of hydrolysis of L-proline p-nitroanilide by human serum was examined, it was observed only 0.7% of hydrolysis of glycyl-L-proline p-nitroanilide.

Series [2] relates to purified human submaxillary enzyme (X-prolyl dipeptidyl-aminopeptidase). The series can be described thus: Direct photometric assay of substrate hydrolysis with purified human submaxillary enzyme. It is filed as biochemical. The procedure: (§1) 3mM substrate solutions were prepared as in Example 22, various dipeptide derivatives or salts thereof being used as substrates. The relative enzyme activities toward various substrates, and the rates and optimum pHs of hydrolysis of various substrates with the enzyme were measured as in Example 22.
^a Activities were measured in 0.15 M Trismaleate buffer at pH 5.6-8.
and in 0.15 M glycineNaOH buffer at pH 8.2-9.4, purified human
submaxillary enzyme being used. For Lalanyl-L-proline pnitroanilide,
amidiol buffer were used instead of glycine buffer, since glycine buffer
interfered the photometry at pH 9-10.
^b Km values were measured at 7.0 in Trismaleate buffer, purified
human submaxillary enzyme being used. The values are the mean of duplicat
(§2) ^c Activities were measured at pH 7.0 in 0.15 M Trismaleate buffer or
(§3) at pH 8.7 in 0.15 M glycineNaOH buffer. The values are the mean of
^d The purified enzyme was obtained by the following method; The
enzyme was solubilized from the microsomal fraction by autodigestion, and
subsequently purified by (NH4)2 SO4 fractionation followed
by Sephadex G200 chromatography.

A short description of series [3]: Stability of aqueous substrate solution. It is filed as physicochemical. Conditions: at the optimum pH, 4° C. The procedure: The enzyme activity is measured without difficulty by using the dipeptide derivatives or salts thereof as substrates. An aqueous solution of X-L-proline-Y or salt thereof having a suitable concentration is first prepared. Since it requires a fairly long time to dissolve the substrate in water, it is preferred to use suitable substances capable of increasing the dissolution rate such as non-ionic detergents, acids and alcohols, or to use the substrate in the porous form which may be prepared by freeze-drying or the like. The porous substrate is most convenient for routine use for assay of the enzyme. The optimum pH of the substrate solution varies depending on the kind of substrate employed, but is easily determined by experiments. The optimum pH is usually in the range of from 6 to 9, preferably of from 7.5 to 8.9.

Series [4] addresses T1, X-prolyl dipeptidyl-aminopeptidase in human serum. The series can be described thus: Direct photometric assay of substrate hydrolysis (p-nitroaniline liberated, 385 nm) with human serum as enzyme source. It is filed as biochemical. Conditions: for Enzyme activity (μmole/min/1 serum ± S.E.): 3 cases; for Amount of p-nitroaniline formed: 37° C., pH 8.7, 0.05 ml human serum; for Enzyme activity average ± S. E.: normal human sera. The protocol:
The relation between the incubation time and the amount of substrate hydrolyzed was examined, glycyl-L-proline p-nitroanilide and human serum being used as substrate and enzyme source, respectively, and the assay of the substrate hydrolyzed was carried out by the following direct photometric method.
Glycyl-L-proline p-nitroanilide tosylate was dissolved in 2% non-ionic detergent (Nikkol NP-10; Nikko Chemicals, Osaka, Japan) aqueous solution in a concentration of 3 mM to prepare the substrate solution. The following four tubes were prepared:
(1) the experimental tube contained 0.5 ml of 0.15 M glycine-NaOH buffer (pH 8.7), 0.5 ml of the substrate solution, and 0.05 ml of human serum
(2) the blank tube contained 0.5 ml of the 0.15 M glycine-NaOH buffer, 0.5 ml of the substrate solution and 0.05 ml of water.
(3) the standard tube contained 0.5 ml of the buffer, 0.5 ml of the substrate and 0.05 ml of 3 mM p-nitroaniline aqueous solution.
(4) the control tube contained 0.5 ml of the buffer and 0.5 ml of the substrate.
All tubes were incubated at 37° C. for the periods listed in Table 1, and the reaction was stopped by the addition of 3.0 ml of 1M acetate buffer (pH 4.2) to every tube. To the control tube, 0.05 ml of the human serum was added after stopping the reaction. A photometer was adjusted to zero with the blank, and the absorbances of the experimental (E), control (C), and standard (S) were read at 385 nm in a cuvette with 1 cm light path. p-Nitroaniline liberated by the enzyme reaction was calculated by the equation [formula]
as §1, §2, §3
The activity of X-prolyl dipeptidyl-aminopeptidase was measured as in Example 22, glycyl-L-proline p-nitroanilide and 88 normal human sera being used as substrate and enzyme, respectively.
The activity of X-prolyl dipeptidyl-aminopeptidase was measured as in Example 22, glycyl-L-proline p-nitroanilide and human sera from patients being used as substrate and enzyme sources, respectively.
The activity of X-prolyl dipeptidyl-aminopeptidase was measured as in Example 22, various X-L-prolyl p-nitroanilides, and human sera from patients being used as substrates and enzyme sources, respectively.

[5] abbreviates: 0.05 ml human serum, pH 8.7, 37° C., 30 minutes.

T1 sequence (P27487 39-766 limits assumed): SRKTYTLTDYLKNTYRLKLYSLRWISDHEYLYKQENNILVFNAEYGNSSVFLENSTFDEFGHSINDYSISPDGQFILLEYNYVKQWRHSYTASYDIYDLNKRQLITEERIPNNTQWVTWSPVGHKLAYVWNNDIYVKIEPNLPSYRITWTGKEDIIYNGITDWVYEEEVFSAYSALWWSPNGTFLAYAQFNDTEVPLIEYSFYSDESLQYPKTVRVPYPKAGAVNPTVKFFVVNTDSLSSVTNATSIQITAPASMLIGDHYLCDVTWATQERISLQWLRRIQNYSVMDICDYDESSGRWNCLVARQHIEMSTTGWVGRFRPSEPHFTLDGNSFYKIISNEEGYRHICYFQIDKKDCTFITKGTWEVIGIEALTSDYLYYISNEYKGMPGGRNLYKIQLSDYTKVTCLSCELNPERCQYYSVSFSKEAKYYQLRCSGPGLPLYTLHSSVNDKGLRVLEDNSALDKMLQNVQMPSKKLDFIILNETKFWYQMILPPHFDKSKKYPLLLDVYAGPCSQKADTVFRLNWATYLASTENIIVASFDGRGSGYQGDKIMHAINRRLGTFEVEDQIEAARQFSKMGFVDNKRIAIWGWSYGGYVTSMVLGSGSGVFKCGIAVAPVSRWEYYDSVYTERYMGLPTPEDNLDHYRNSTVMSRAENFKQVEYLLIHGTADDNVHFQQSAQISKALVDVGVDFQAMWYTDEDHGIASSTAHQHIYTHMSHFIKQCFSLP

As for `NCC(=O)N1CCC[C@H]1C(=O)Nc1ccc(N=Nc2ccccc2)c2ccccc12` [Glycyl-L-proline 4-phenylazo-1-naphthyl amide], the “absorbance A 532 nm” value in series [1] (setting [5]) was found to be 0.80.

In the case of `NCC(=O)N1CCC[C@H]1C(=O)O` [Glycyl-L-proline] (H-Gly-Pro-OH), the “products identified by paper chromatography / hydrolysis by human serum” value with human serum is “hydrolyzed to glycine and L-proline”.

As to `NCC(=O)N1CCC[C@H]1C(=O)Nc1ccc([N+](=O)[O-])cc1` [glycyl-L-proline p-nitroanilide, Glycyl-L-proline p-nitroanilide] (H-Gly-Pro-pNA), the “Optimum pH” value in series [2] (Tris-maleate, glycine-NaOH or amidiol buffer) was 8.5-8.7. Further, in series [2] (pH 7.0, 0.15 M Tris-maleate buffer, glycyl-L-proline p-nitroanilide = 100), the “Relative enzyme activity (%) Purified human submaxillary enzyme pH 7.0” value came out at 100%. The Michaelis-Menten constant (Km) in series [2] (pH 7.0, Tris-maleate buffer, mean of duplicate experiments) amounted to 330 µM. Besides, in the series on human serum, the “products identified by paper chromatography / hydrolysis by human serum” value is “glycyl-L-proline, glycine, L-proline and p-nitroaniline were identified”. For the same molecule, the “storage of substrate solution without appreciable degradation” value in series [3] is “more than a week”. Also, the Enzyme activity was found to be 38.8 ± 11.9 μmole/min/1 serum in series [4] (human sera from patients, Acute lymphocytic leukemia, 22 cases); 80.94 ± 3.87 μmole/min/1 serum in series [4] (human sera from patients, Early essential hypertension, 20 cases); 89.29 ± 3.69 μmole/min/1 serum in series [4] (human sera from patients, Fixed essential hypertension, 17 cases); 38.4 ± 2.3 μmole/min/1 serum in series [4] (human sera from patients, Gastric Cancer, 37 cases); 75.8 ± 28.5 μmole/min/1 serum in series [4] (human sera from patients, Hepatitis, 23 cases); 31.0 ± 9.5 μmole/min/1 serum in series [4] (human sera from patients, Hodgkin's disease, 15 cases). For the same molecule, the Enzyme activity in series [4] (human sera from patients, Lymphosarcoma, 11 cases) stood at 36.3 ± 5.6 μmole/min/1 serum; in series [4] (human sera from patients, Pulmonary Cancer, 17 cases) it was 39.8 ± 2.6 μmole/min/1 serum; in series [4] (human sera, Normal (control), 88 cases) it was 54.9 ± 1.5 μmole/min/1 serum. For the same molecule, the “Enzyme activity (μmole/min/1 serum ± S.E.)” value in series [4] (human sera from patients, Gastric Cancer) was 25.3 ± 3.0 μmole/min/1 serum; in series [4] (human sera from patients, Hepatitis), 143.0 ± 31.8 μmole/min/1 serum; in series [4] (human sera, Normal (control)) it was 50.4 ± 15.0 μmole/min/1 serum. Moreover, the “Relative enzyme activity (%) Human serum pH 7.0” value in series [4] (human serum, pH 7.0, 0.15 M Tris-maleate buffer, glycyl-L-proline p-nitroanilide = 100) is on record as 100%. The “Relative enzyme activity (%) Human serum pH 8.7” value in series [4] (human serum, pH 8.7, 0.15 M glycine-NaOH buffer, glycyl-L-proline p-nitroanilide = 100) is on record as 100%. Also, the “Amount of p-nitroaniline formed” value in series [4] (incubation time 15 min) was 18.11 n mole; in series [4] (incubation time 30 min) it was 35.43 n mole; in series [4] (incubation time 60 min), 71.65 n mole; in series [4] (incubation time 90 min) it was 100.79 n mole; in series [4] (incubation time 120 min), 135.43 n mole. The “Enzyme activity average ± S. E.” value in series [4] (Older Female, 17 subjects, 48-76 years) was determined as 58.16 ± 4.37 μ mole/min/1 serum; in series [4] (Older Male, 29 subjects, 41-81 years), 53.18 ± 2.43 μ mole/min/1 serum; in series [4] (Older, 46 subjects, 41-81 years), 55.04 ± 2.23 μ mole/min/1 serum; in series [4] (Total Female, 35 subjects, 20-76 years), 52.49 ± 2.47 μ mole/min/1 serum; in series [4] (Total Male, 53 subjects, 15-81 years), 56.30 ± 1.90 μ mole/min/1 serum; in series [4] (Total, 88 subjects, 15-81 years), 54.88 ± 1.50 μ mole/min/1 serum. In addition, the “Enzyme activity average ± S. E.” value was found to be 47.59 ± 2.07 μ mole/min/1 serum in series [4] (Younger Female, 18 subjects, 20-40 years); 60.10 ± 2.84 μ mole/min/1 serum in series [4] (Younger Male, 24 subjects, 15-40 years); 54.76 ± 2.07 μ mole/min/1 serum in series [4] (Younger, 42 subjects, 15-40 years).

With `Cc1ccc(S(=O)(=O)O)cc1.NCC(=O)N1CCC[C@H]1C(=O)Nc1ccc(N=Nc2ccccc2)cc1` [glycyl-L-proline p-phenylazoanilide, Glycyl-L-proline p-phenylazoanilide tosylate], the “absorbance A 493 nm” value in series [1] (setting [5]) is reported as 0.18. Besides, in series [1] (human serum as enzyme, as in Example 26), the rate of hydrolysis stood at 18.7 n mole/min./l serum.
